Measurements: ChEMBL document CHEMBL6121062, “Discovery, Optimization, and Preclinical Pharmacology of EP652, a METTL3 Inhibitor with Efficacy in Liquid and Solid Tumor Models” (J Med Chem, 2025)
The source made the active and inactive calls. The calls are words filed in the database; no cut-off is given here.

Columns and labels:
[1] = system: Acute myeloid leukemic cell; experiment: Antitumor activity against patient-derived human Acute myeloid leukemic cells xenografted in NSG mouse assessed as prolongation of animal survival at 30 mg/kg, ip qd treated for 91 days measured upto 112 days; type: functional, organism-based; conditions: time <= 112.0 day
[2] = Toxicity in NSG mouse xenografted with human A549 cells assessed as body weight gain at 30 mg/kg, ip qd treated for 50 days; type: organism-based; conditions: in vivo, 1200 h, time 50 day
[3] = Toxicity in NSG mouse xenografted with human SK-OV-3 cells assessed as body weight gain at 30 mg/kg, ip qd treated for 83 days; type: organism-based; conditions: in vivo, 1992 h, time 83 day
[4] = molecular target: Voltage-gated inwardly rectifying potassium channel KCNH2 (Homo sapiens, UniProt Q12809); experiment: Inhibition of hERG transfected in HEK293 cells at 20 mV; type: toxicity, cell-based
Chain of Voltage-gated inwardly rectifying potassium channel KCNH2 (Q12809 whole entry): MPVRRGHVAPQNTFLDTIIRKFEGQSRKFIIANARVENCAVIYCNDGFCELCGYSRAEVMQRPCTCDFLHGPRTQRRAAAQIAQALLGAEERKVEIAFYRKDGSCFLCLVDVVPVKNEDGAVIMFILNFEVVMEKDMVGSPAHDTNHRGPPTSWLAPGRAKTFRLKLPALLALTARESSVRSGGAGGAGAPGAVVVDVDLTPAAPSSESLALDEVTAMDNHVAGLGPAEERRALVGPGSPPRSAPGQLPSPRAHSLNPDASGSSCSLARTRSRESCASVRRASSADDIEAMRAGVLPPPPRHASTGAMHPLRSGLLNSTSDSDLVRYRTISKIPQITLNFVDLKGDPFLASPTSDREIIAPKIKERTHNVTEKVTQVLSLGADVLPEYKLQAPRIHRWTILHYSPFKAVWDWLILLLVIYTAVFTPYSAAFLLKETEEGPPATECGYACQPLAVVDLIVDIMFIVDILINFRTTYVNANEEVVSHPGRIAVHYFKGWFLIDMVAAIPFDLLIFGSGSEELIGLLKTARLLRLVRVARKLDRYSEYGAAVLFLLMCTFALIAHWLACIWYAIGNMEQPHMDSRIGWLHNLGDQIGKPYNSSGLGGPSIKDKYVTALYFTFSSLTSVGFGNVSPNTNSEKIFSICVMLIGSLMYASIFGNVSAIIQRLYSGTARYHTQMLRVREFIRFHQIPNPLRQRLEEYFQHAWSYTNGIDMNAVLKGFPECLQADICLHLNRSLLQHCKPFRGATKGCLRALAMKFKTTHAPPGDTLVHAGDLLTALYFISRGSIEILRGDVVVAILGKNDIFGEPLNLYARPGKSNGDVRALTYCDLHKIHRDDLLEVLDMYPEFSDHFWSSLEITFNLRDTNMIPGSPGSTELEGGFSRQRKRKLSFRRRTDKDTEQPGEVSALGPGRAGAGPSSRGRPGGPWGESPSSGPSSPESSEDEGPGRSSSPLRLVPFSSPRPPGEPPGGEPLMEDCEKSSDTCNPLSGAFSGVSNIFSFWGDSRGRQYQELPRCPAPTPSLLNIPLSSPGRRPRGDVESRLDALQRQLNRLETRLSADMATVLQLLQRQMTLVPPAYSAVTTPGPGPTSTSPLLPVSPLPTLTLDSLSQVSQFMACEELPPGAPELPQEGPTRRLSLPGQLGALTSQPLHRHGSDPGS

Cytochrome P450 2C19 = Cytochrome P450 2C19 (Homo sapiens, UniProt P33261); experiment: Inhibition of CYP2C19 (unknown origin); type: ADME
Chain of Cytochrome P450 2C19 (P33261 whole entry): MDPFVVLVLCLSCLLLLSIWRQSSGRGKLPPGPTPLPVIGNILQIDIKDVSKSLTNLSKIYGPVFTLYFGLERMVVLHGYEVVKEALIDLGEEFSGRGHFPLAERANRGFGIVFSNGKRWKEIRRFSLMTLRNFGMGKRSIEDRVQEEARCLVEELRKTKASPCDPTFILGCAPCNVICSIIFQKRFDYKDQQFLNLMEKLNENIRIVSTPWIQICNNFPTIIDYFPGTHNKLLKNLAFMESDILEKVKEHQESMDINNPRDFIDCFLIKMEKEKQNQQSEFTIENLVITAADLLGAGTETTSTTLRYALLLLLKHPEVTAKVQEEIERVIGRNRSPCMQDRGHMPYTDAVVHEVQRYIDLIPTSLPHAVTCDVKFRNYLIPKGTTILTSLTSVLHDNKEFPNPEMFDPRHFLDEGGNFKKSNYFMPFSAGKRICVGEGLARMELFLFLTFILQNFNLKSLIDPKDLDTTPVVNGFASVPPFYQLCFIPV

A549 = experiment: Antitumor activity against human A549 cells xenografted in NSG mouse assessed as tumor growth inhibition at 30 mg/kg, ip qd treated for 50 days by bioluminescence imaging analysis; type: functional, organism-based; conditions: time 50.0 day
Caov-3 cell line = experiment: Antiproliferative activity against human Caov-3 cells assessed as inhibition of cell viability incubated for 72 hrs by ATPlite assay; type: functional, cell-based; conditions: Caov-3, 72 h
METTL3/METTL14 [5] = molecular target: T1, METTL3/METTL14 (Homo sapiens, UniProt Q86U44); experiment: (§1) Inhibition of METTL3/METTL14-mediated m6A mRNA expression in human FaDu cells incubated for 24 hrs by LC-MS/MS analysis; type: cell-based
T1 sequence (Q86U44 whole entry): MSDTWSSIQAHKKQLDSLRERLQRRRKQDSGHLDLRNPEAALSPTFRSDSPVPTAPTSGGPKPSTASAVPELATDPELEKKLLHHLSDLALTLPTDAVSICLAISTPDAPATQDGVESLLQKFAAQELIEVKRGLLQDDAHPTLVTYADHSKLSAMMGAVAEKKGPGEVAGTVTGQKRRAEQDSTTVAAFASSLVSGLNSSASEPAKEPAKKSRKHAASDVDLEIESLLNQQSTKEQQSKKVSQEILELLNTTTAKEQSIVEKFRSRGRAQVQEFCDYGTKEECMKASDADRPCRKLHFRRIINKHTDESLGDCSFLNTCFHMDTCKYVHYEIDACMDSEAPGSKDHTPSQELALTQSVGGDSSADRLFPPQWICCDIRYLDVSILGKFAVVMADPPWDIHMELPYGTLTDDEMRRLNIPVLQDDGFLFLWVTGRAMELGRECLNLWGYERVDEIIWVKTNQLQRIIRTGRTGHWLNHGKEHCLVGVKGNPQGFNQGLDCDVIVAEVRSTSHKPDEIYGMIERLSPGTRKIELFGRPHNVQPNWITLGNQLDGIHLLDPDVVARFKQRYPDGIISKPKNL
T1 sequence (Q9HCE5 whole entry, further chain): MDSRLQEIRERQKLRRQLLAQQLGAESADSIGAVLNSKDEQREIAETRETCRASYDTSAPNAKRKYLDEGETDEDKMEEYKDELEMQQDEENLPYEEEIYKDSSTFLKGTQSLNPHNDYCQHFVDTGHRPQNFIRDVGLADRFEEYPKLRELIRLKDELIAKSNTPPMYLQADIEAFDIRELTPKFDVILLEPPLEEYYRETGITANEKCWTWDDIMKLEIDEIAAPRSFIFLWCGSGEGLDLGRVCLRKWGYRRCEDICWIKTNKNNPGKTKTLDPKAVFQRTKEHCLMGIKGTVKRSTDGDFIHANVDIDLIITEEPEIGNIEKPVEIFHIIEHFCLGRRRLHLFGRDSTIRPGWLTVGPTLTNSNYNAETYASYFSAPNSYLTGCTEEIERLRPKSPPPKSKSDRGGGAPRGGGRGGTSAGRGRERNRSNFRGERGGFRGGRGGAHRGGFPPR

[6] = molecular target: T2, METTL3/METTL14 (Homo sapiens) (UniProt Q86U44+Q9HCE5); experiment: as §1; type: cell-based
[7] = Half life in human liver microsomes; type: ADME, Microsome
[8] = Toxicity in NSG mouse xenografted with human FaDu cells assessed as macroscopic adverse events at 30 mg/kg, ip qd treated for 20 days; type: organism-based; conditions: in vivo, 480 h, time 20 day
Kasumi 1 [9] = experiment: Antiproliferative activity against human Kasumi 1 cells assessed as inhibition of cell viability incubated for 72 hrs by ATPlite assay; type: functional, cell-based; conditions: Kasumi 1, 72 h
Cytochrome P450 1A2 = molecular target: T3, Cytochrome P450 1A2 (Homo sapiens, UniProt P05177); experiment: Inhibition of CYP1A2 (unknown origin); type: ADME
T3 sequence (P05177 whole entry): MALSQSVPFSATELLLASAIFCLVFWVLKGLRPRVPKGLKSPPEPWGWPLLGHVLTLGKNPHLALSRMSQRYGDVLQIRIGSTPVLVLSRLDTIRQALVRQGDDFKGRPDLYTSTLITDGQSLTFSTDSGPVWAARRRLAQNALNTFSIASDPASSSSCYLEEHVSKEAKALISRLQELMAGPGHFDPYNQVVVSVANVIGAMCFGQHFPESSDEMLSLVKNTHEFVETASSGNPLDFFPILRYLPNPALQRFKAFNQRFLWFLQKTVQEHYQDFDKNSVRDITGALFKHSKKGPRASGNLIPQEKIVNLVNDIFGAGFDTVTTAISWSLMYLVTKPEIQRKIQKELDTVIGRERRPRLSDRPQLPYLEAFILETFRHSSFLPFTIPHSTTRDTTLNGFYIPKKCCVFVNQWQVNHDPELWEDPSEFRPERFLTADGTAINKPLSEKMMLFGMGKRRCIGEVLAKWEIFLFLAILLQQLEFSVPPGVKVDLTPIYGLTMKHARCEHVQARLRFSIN

METTL3/METTL14 [10] = molecular target: T1, METTL3/METTL14; experiment: (§2) Inhibition of METTL3/METTL14-mediated m6A mRNA expression in human Kasumi 1 cells incubated for 24 hrs by LC-MS/MS analysis; type: cell-based
[11] = molecular target: T2, METTL3/METTL14 (Homo sapiens); experiment: as §2; type: cell-based
[12] = Lipophilicity, logD of compound in 1-octanol/PBS at pH 7.4 incubated for 24 hrs by HPLC analysis; type: physicochemical
Kasumi 1 [13] = experiment: Induction of apoptosis in human Kasumi 1 cells incubated for 48 hrs by Caspase-Glo 3/7 assay; type: functional, cell-based
Calu-6 = experiment: Antiproliferative activity against human Calu-6 cells assessed as inhibition of cell viability incubated for 72 hrs by ATPlite assay; type: functional, cell-based; conditions: Calu-6, 72 h
Cytochrome P450 3A4 = Cytochrome P450 3A4 (Homo sapiens, UniProt P08684); experiment: Inhibition of CYP3A4 (unknown origin); type: ADME
Chain of Cytochrome P450 3A4 (P08684 whole entry): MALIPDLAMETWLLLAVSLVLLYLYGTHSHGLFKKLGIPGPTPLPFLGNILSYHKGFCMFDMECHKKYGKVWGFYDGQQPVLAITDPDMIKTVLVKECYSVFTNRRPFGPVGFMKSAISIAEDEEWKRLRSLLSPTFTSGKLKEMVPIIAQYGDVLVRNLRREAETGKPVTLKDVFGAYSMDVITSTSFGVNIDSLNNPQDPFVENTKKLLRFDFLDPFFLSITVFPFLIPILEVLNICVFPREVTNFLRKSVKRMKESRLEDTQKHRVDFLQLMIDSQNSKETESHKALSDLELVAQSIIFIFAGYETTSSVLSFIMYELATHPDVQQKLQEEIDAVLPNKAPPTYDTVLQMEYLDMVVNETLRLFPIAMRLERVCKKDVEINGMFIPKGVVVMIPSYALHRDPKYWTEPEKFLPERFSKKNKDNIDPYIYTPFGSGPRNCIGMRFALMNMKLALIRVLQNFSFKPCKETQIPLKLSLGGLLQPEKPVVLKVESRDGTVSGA

MV4-11 = experiment: Antiproliferative activity against human MV4-11 cells assessed as inhibition of cell viability incubated for 72 hrs by ATPlite assay; type: functional, cell-based; conditions: MV4-11, 72 h
[14] = Stability in human hepatocytes assessed as half life; type: ADME, cell-based, Hepatocyte
[15] = Toxicity in NSG mouse xenografted with human SK-OV-3 cells assessed as macroscopic adverse events at 30 mg/kg, ip qd treated for 83 days; type: organism-based; conditions: in vivo, 1992 h, time 83 day
[16] = Unbound AUC in mouse at 30 mg/kg, ip; type: ADME, organism-based; conditions: in vivo

IC50 (Cytochrome P450 2C19): > 100000 nM | IC50 (METTL3/METTL14 [5]): 6 nM | inhibition [6]: Dose-dependent-effect | half-life [7]: 2.34 h | IC50 (Cytochrome P450 1A2): > 100000 nM | IC50 (METTL3/METTL14 [10]): 5 nM | inhibition [11]: Dose-dependent-effect | logD at 24 h [12]: 1.16 | IC50 (Calu-6): 18 nM | IC50 (Cytochrome P450 3A4): 900 nM | IC50 (MV4-11): 234 nM | half-life [14]: > 4 h | fAUC [16]: 175.8 µM·min
SMILES: C[C@@H](n1cc(-c2cncc(N(C)C)c2)nn1)n1ccc(N2CCC[C@@H](NCC3CC3)C2)cc1=O
Activity [1]: Active | Activity [2]: Non-toxic | Activity [3]: Non-toxic | IC50 [4]: > 30000 nM | inhibition (A549): Active | IC50 (Caov-3 cell line): 20 nM | Activity [8]: Non-toxic | IC50 (Kasumi 1 [9]): 37 nM | Activity (Kasumi 1 [13]): Active | Activity [15]: Non-toxic
